Laboratory results as given in US20060173015A1, “Cyclohexyldiamines as selective alpha 1a/1d adrenoreceptor antagonists for the treatment of benign prostatic hypertrophy and lower urinary tract symptoms” (priority 2004, published 2006).
Like-named read-outs stand apart in the source and are kept apart here. Blank lines part the entries; values can stand above or below the compound they belong to.

Experiments:
α1b-AR = target: T1, α1b-AR (Homo sapiens, UniProt P35368); assay: α1-Adrenergic receptor radio-ligand (125I-HEAT) binding assay, α1b subtype; details: Receptor Binding, Ki α1b-AR, COS-7 cell membranes, 125I-HEAT
T1 sequence (P35368 1-520): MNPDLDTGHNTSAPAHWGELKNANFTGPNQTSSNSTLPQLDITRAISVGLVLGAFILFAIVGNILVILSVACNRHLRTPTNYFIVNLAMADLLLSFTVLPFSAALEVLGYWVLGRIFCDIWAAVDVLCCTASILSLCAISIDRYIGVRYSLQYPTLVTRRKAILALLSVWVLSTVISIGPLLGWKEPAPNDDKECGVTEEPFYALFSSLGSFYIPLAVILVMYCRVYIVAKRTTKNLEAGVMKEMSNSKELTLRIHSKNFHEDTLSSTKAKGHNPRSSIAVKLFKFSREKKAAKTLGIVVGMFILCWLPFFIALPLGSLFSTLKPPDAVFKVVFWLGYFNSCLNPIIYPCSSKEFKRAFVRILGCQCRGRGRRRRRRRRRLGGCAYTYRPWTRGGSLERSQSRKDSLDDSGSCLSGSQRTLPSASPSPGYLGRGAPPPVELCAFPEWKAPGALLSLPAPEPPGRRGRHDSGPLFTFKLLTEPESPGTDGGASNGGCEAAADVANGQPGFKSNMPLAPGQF

α1d-AR = target: T2, α1d-AR (Homo sapiens, UniProt P25100); assay: α1-Adrenergic receptor radio-ligand (125I-HEAT) binding assay, α1d subtype
T2 construct: expressed in transfected cells; host or cells: COS-7
T2 sequence (P25100 1-572): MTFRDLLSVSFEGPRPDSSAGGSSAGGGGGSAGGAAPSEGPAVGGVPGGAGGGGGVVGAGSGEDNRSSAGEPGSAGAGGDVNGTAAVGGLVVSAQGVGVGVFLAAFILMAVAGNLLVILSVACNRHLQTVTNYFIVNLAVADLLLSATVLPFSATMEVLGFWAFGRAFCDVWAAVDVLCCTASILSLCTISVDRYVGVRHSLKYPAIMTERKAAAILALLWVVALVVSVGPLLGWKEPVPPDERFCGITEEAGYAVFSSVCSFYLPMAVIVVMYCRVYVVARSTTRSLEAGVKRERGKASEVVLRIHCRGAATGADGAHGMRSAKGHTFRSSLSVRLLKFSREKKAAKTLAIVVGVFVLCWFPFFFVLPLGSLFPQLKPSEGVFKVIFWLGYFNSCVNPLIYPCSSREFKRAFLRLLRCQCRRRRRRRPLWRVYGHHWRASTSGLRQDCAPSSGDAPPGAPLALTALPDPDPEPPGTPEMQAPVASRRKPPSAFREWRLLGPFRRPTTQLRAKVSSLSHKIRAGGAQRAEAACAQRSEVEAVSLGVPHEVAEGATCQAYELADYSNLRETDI
Protocol: α1-Adrenergic Receptor Binding Assay: Preparation of COS Cell Membranes
Membranes were prepared from COS-7 cells that had been transfected with one of the three α1-AR subtypes by the following method. COS cells from ten 100 mm tissue culture plates were scraped into 5 mL TE (50 mM Tris-HCl, 5 mM EDTA, pH 7.4). The cell suspension was disrupted with a Brinkman Polytron, setting 8, for 10 sec. The disrupted cells were centrifuged at 1000×g for 10 min at 4° C. Supernatants were centrifuged at 34,500×g for 20 min at 4° C. The membrane pellets were suspended in 2 mL TNE (50 mM Tris-HCl, 5 mM EDTA, 150 mM NaCl, pH7.4). An aliquot of the membrane suspension was stored at −70° C. until use. The protein concentration was determined using the BioRad DC protein assay kit following membrane solubilization with Triton X-100.
Radio-Ligand Binding Assay
Triplicate determinations of radio-ligand binding in the presence of increasing: concentrations of testing compound were made. The reagents were added to 96-well polypropylene plate wells using the Biomek 1000 robot (Beckman Instruments). […] The plate was incubated at rt for 1 hr. The contents of the wells were filtered through a GF/C membrane Unifilter plate (Packard Instruments) using the Packard Filtermate cell harvester. The filter plates were dried in a vacuum oven for 30 min at 40° C. 25 μL Microscint 20 liquid scintillation fluid (Packard Instuments) was added to each well. The radioactive content was analyzed in the TopCount microplate scintillation counter (Packard Instruments).

[1] = COS-7 cell membranes, 125I-HEAT, read-out: Receptor Binding, Ki α1d-AR
[2] = Receptor Binding, Ki α1d-AR, COS-7 cell membranes, 125I-HEAT

SMILES: CC(C)Oc1ccccc1N1CCN([C@H]2CC[C@@H](NS(=O)(=O)c3cccc(C(F)(F)F)c3)CC2)CC1 [Cpd 2, N-cis-{4-[4-(2-Isopropoxy-phenyl)-piperazin-1-yl]-cyclohexyl}-3-trifluoromethyl-benzenesulfonamide]
Ki (α1b-AR): 276 nM

SMILES: CC(C)Oc1ccccc1N1CCN([C@H]2CC[C@@H](NS(=O)(=O)c3ccc(S(C)(=O)=O)cc3)CC2)CC1 [Cpd 6, N-cis-{4-[4-(2-Isopropoxy-phenyl)-piperazin-1-yl]-cyclohexyl}-4-methanesulfonyl-benzenesulfonamide]
Ki (α1d-AR; [1]): 3.4 nM | Ki (α1b-AR): 195 nM

SMILES: COc1ccc(S(=O)(=O)N[C@H]2CC[C@@H](N3CCN(c4ccccc4OC(C)C)CC3)CC2)cc1OC [Cpd 7, N-cis-{4-[4-(2-Isopropoxy-phenyl)-piperazin-1-yl]-cyclohexyl}-3,4-dimethoxy-benzenesulfonamide]
Ki (α1d-AR): 1 nM | Ki (α1b-AR): 109 nM

SMILES: COc1ccc(OC)c(S(=O)(=O)N[C@H]2CC[C@@H](N3CCN(c4ccccc4OC(C)C)CC3)CC2)c1 [Cpd 8, N-cis-{4-[4-(2-Isopropoxy-phenyl)-piperazin-1-yl]-cyclohexyl}-2,5-dimethoxy-benzenesulfonamide]
Ki (α1d-AR; [2]): 9.6 nM | Ki (α1b-AR): 167 nM

SMILES: CC(C)Oc1ccccc1N1CCN([C@H]2CC[C@@H](NS(=O)(=O)c3cccc(C(F)(F)F)c3)CC2)CC1 [Cpd 16, N-cis-{4-[4-(2-Isopropoxy-phenyl)-piperazin-1-yl]-cyclohexyl}-3-trifluoromethyl-benzenesulfonamide]
Ki (α1b-AR): 222 nM

SMILES: CC(C)Oc1ccccc1N1CCN([C@H]2CC[C@@H](NS(=O)(=O)c3ccccc3F)CC2)CC1 [Cpd 21, 2-Fluoro-N-cis-{4-[4-(2-isopropoxy-phenyl)-piperazin-1-yl]-cyclohexyl}-benzenesulfonamide]
Ki (α1d-AR; [2]): 2.7 nM | Ki (α1b-AR): 103 nM

SMILES: CC(C)Oc1ccccc1N1CCN([C@H]2CC[C@@H](NS(=O)(=O)c3cccc(Cl)c3F)CC2)CC1 [Cpd 23, 3-Chloro-2-fluoro-N-cis-{4-[4-(2-isopropoxy-phenyl)-piperazin-1-yl]-cyclohexyl}-benzenesulfonamide]
Ki (α1d-AR; [1]): 3 nM | Ki (α1b-AR): 195 nM

SMILES: CC(C)Oc1ccccc1N1CCN([C@H]2CC[C@@H](NS(=O)(=O)c3ccc(Cl)cc3F)CC2)CC1 [Cpd 24, 4-Chloro-2-fluoro-N-cis-{4-[4-(2-isopropoxy-phenyl)-piperazin-1-yl]-cyclohexyl}-benzenesulfonamide]
Ki (α1d-AR): 1.5 nM | Ki (α1b-AR): 101 nM

SMILES: CC(C)Oc1ccccc1N1CCN([C@H]2CC[C@@H](NS(=O)(=O)c3ccccc3C#N)CC2)CC1 [Cpd 27, 2-Cyano-N-cis-{4-[4-(2-isopropoxy-phenyl)-piperazin-1-yl]-cyclohexyl}-benzenesulfonamide]
Ki (α1d-AR; [1]): 6.3 nM | Ki (α1b-AR): 217 nM

Ki (α1d-AR; [1]): 0.8 nM | Ki (α1b-AR): 42 nM
SMILES: COc1ccc(Br)cc1S(=O)(=O)N[C@H]1CC[C@@H](N2CCN(c3ccccc3OC(C)C)CC2)CC1 [Cpd 28, 5-Bromo-N-cis-{4-[4-(2-isopropoxy-phenyl)-piperazin-1-yl]-cyclohexyl}-2-methoxy-benzenesulfonamide]

SMILES: CC(C)Oc1ccccc1N1CCN([C@H]2CC[C@H](NS(=O)(=O)c3cccc(C(F)(F)F)c3)CC2)CC1 [Cpd 30, N-trans-{4-[4-(2-Isopropoxy-phenyl)-piperazin-1-yl]-cyclohexyl}-3-trifluoromethyl-benzenesulfonamide]
Ki (α1d-AR; [2]): 49 nM | Ki (α1b-AR): 204 nM

SMILES: CC(C)Oc1ccccc1N1CCN([C@H]2CC[C@H](NS(=O)(=O)c3ccc(S(C)(=O)=O)cc3)CC2)CC1 [Cpd 34, N-trans-{4-[4-(2-Isopropoxy-phenyl)-piperazin-1-yl]-cyclohexyl}-4-methanesulfonyl-benzenesulfonamide]
Ki (α1d-AR; [1]): 22 nM | Ki (α1b-AR): 392 nM

SMILES: COc1ccc(S(=O)(=O)N[C@H]2CC[C@H](N3CCN(c4ccccc4OC(C)C)CC3)CC2)cc1OC [Cpd 35, N-trans-{4-[4-(2-Isopropoxy-phenyl)-piperazin-1-yl]-cyclohexyl}-3,4-dimethoxy-benzenesulfonamide]
Ki (α1d-AR): 24 nM | Ki (α1b-AR): 126 nM

SMILES: COc1ccc(OC)c(S(=O)(=O)N[C@H]2CC[C@H](N3CCN(c4ccccc4OC(C)C)CC3)CC2)c1 [Cpd 36, N-trans-{4-[4-(2-Isopropoxy-phenyl)-piperazin-1-yl]-cyclohexyl}-2,5-dimethoxy-benzenesulfonamide]
Ki (α1d-AR; [2]): 56 nM | Ki (α1b-AR): 424 nM

SMILES: CC(C)Oc1ccccc1N1CCN([C@H]2CC[C@H](NS(=O)(=O)c3cccc(C(F)(F)F)c3)CC2)CC1 [Cpd 44, N-trans-{4-[4-(2-Isopropoxy-phenyl)-piperazin-1-yl]-cyclohexyl}-3-trifluoromethyl-benzenesulfonamide]
Ki (α1d-AR; [2]): 34.7 nM | Ki (α1b-AR): 334 nM

SMILES: CC(C)Oc1ccccc1N1CCN([C@H]2CC[C@H](NS(=O)(=O)c3ccccc3F)CC2)CC1 [Cpd 49, 2-Fluoro-N-trans-{4-[4-(2-isopropoxy-phenyl)-piperazin-1-yl]-cyclohexyl}-benzenesulfonamide]
Ki (α1d-AR; [2]): 30 nM | Ki (α1b-AR): 385 nM

SMILES: CC(C)Oc1ccccc1N1CCN([C@H]2CC[C@H](NS(=O)(=O)c3cccc(Cl)c3F)CC2)CC1 [Cpd 51, 3-Chloro-2-fluoro-N-trans-{4-[4-(2-isopropoxy-phenyl)-piperazin-1-yl]-cyclohexyl}-benzenesulfonamide]
Ki (α1d-AR; [1]): 24 nM | Ki (α1b-AR): 348 nM

SMILES: CC(C)Oc1ccccc1N1CCN([C@H]2CC[C@H](NS(=O)(=O)c3ccc(Cl)cc3F)CC2)CC1 [Cpd 52, 4-Chloro-2-fluoro-N-trans-{4-[4-(2-isopropoxy-phenyl)-piperazin-1-yl]-cyclohexyl}-benzenesulfonamide]
Ki (α1d-AR): 19 nM | Ki (α1b-AR): 243 nM

SMILES: CC(C)Oc1ccccc1N1CCN([C@H]2CC[C@H](NS(=O)(=O)c3ccccc3C#N)CC2)CC1 [Cpd 55, 2-Cyano-N-trans-{4-[4-(2-isopropoxy-phenyl)-piperazin-1-yl]-cyclohexyl}-benzenesulfonamide]
Ki (α1d-AR; [1]): 3.2 nM | Ki (α1b-AR): 31 nM

Ki (α1d-AR; [1]): 38 nM | Ki (α1b-AR): 131 nM
SMILES: COc1ccc(Br)cc1S(=O)(=O)N[C@H]1CC[C@H](N2CCN(c3ccccc3OC(C)C)CC2)CC1 [Cpd 56, 5-Bromo-N-trans-{4-[4-(2-isopropoxy-phenyl)-piperazin-1-yl]-cyclohexyl}-2-methoxy-benzenesulfonamide]
